According to PMC5984089, “FBXW7 regulates DISC1 stability via the ubiquitin-proteosome system” (Molecular Psychiatry, 2017):
Residues, ends and D or L forms follow the SMILES beside them. *: point of attachment. Cbz = O=C(OCc1ccccc1)*

Test system: DISC1, neural progenitors derived from patients carrying a 4-bp deletion in the DISC1 gene
Assay: DISC1 protein level in patient iPS-derived neural progenitors (DISC1 frameshift, 4-bp deletion), western blot
Format: cell-based, human
Excerpt: All iPS derived neural progenitors were provided by Pfizer Neuroscience (Cambridge, MA, USA). The iPS cell lines D2 and D3 and family control cell line C1 were generated using a non-integrated approach by Dr Hongjun Song at Johns Hopkins University and cultured as described previously.[8] The Detroit iPS cell line was generated by Dr S. Engle at Pfizer Neuroscience. Detroit 551 fibroblasts were obtained from ATCC (CCL-110) and maintained in Knockout DMEM (Life Technologies 10829-018), 15% FBS (Life Technologies), 1x Non-essential amino acids (Life Technologies 11140-050), 2 mM L-glutamine (Life Technologies 25030-081), 1x Gentamicin (Life Technologies 15710-072), 0.1 mM β-mercaptoethanol (Sigma M-7522). The cells were reprogrammed with individual lentiviruses expressing c-MYC, KLF4, SOX2, OCT3/4, NANOG, and LIN28. One colony, Detroit 551-3, with ES-like morphology, high expression of pluripotency markers (for example, OCT3/4, TRA-1-60, TRA-1-81, SSEA4), a normal karyotype, […] the ability to form all three germ layers in a teratoma assay was used in all subsequent experiments. […]

CC(C)C[C@@H](C=O)NC(=O)[C@H](CC(C)C)NC(=O)[C@H](CC(C)C)NC(=O)OCc1ccccc1 [MG132] (Cbz-Leu-Leu-Leu-aldehyde)
DISC1 protein level in NPs from D2-1 (patient) iPS cells, proteasomal inhibition (MG132 10 µM, day 18, up to 3 hours, n=2, western blot): stabilization of DISC1 protein levels within first 30 min up to 3 hours | DISC1 level in patient-derived NP cells after MG132 (MG132, Supplementary Figure 10D): could be enhanced by MG132 treatment
